Active and inactive are the calls of the source. No cut-off for these calls is given here.
Assays:
HCC1806 [1] = experiment: Induction of apoptosis in human HCC1806 cells assessed as viable cells at 0.2 uM incubated for 24 hrs by Annexin V-FITC/PI staining based flow cytometry (reference value: 98.95 %); format: functional; conditions: read-out: Activity
MDA-MB-231 [2] = experiment: Induction of apoptosis in human MDA-MB-231 cells assessed as early apoptotic cells at 0.4 uM incubated for 24 hrs by Annexin V-FITC/PI staining based flow cytometry (reference value: 1.16 %); format: functional
[3] = molecular target: Tyrosine-protein kinase JAK2 (Homo sapiens, UniProt O60674); experiment: Induction of JAK2 degradation in Carfilzomib-treated human HCC1806 cells at 0.4 uM incubated for 24 hrs by Western blot analysis; format: cell-based
Chain of Tyrosine-protein kinase JAK2 (O60674 whole entry): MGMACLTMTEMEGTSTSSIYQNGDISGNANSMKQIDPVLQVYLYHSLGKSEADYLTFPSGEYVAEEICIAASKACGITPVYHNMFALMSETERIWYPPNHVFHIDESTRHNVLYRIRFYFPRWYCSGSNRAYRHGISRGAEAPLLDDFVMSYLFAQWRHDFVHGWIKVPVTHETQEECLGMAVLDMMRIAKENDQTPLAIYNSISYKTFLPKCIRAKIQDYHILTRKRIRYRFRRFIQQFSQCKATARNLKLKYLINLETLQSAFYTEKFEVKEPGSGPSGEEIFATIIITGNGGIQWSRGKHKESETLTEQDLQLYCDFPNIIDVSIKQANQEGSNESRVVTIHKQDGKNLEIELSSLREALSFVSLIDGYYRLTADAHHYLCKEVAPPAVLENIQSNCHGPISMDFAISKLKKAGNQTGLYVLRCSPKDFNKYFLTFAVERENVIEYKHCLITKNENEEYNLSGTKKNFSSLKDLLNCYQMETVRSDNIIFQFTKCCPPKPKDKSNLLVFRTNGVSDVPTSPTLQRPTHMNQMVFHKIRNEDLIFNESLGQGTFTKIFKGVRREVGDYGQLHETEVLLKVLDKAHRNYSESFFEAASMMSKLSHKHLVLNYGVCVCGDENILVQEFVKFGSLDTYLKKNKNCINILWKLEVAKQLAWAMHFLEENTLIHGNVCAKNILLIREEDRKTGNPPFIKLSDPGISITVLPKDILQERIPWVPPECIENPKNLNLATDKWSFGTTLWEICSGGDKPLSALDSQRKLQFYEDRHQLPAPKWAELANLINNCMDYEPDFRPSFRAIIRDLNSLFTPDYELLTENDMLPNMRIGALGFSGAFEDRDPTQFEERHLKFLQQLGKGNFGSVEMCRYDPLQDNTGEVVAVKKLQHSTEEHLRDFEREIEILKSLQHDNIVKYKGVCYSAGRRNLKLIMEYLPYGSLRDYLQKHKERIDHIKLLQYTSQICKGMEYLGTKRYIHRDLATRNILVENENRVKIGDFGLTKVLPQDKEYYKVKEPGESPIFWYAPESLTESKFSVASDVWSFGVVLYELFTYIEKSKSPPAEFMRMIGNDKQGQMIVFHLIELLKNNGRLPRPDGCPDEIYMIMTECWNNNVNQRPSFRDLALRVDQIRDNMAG

[4] = Toxicity in Balb/c nude mouse assessed as behavioural changes at 60 mg/kg, ip bid for 14 days consecutively; format: organism-based; conditions: in vivo, 336 h, time 14 day
[5] = Tmax in Sprague-Dawley rat at 4 mg/kg, ip; format: ADME, organism-based; conditions: in vivo
HCC1806 [6] = experiment: Antitumor activity against human HCC1806 cells xenografted in Balb/c mouse assessed as increase in E-cadherin level at 40 to 60 mg/kg, ip bid measured after 14 days by IHC analysis; format: functional, organism-based; conditions: dose 40-60 mg/kg, time 14.0 day
MDA-MB-231 [7] = experiment: Anti-proliferative activity against human MDA-MB-231 cells assessed as reduction in EdU-positive cells at 0.2 uM; format: functional, cell-based
MDA-MB-231 [8] = experiment: Anti-proliferative activity against human MDA-MB-231 cells assessed as cell survival; format: functional; conditions: dose < 0.4 µM; time 24 hrs
HCC1806 [9] = experiment: Synergistic inhibition of cell proliferation in human HCC1806 cells assessed as combination index at 0.35 uM in presence of PTX; format: functional
MDA-MB-231 [10] = experiment: Inhibition of colony formation in human MDA-MB-231 cells at 0.05 uM measured after 7 days; format: functional, cell-based; conditions: time 7.0 day
HCC1806 [11] = experiment: Antitumor activity against human HCC1806 cells xenografted in Balb/c mouse assessed as decrease in Ki67 level at 40 to 60 mg/kg, ip bid measured after 14 days by IHC analysis; format: functional, organism-based; conditions: dose 40-60 mg/kg, time 14.0 day
MDA-MB-231 [12] = experiment: Inhibition of cell invasion in human MDA-MB-231 cells; format: functional, cell-based; conditions: dose 0.05-2 µM
HCC1806 [13] = experiment: Anti-proliferative activity against human HCC1806 cells assessed as cell survival; format: functional; conditions: dose < 0.4 µM; time 24 hrs
HCC1806 [14] = experiment: Antitumor activity against human HCC1806 cells xenografted in Balb/c mouse assessed as reduction in tumor weight at 40 to 60 mg/kg, ip bid measured after 14 days; format: functional, organism-based; conditions: dose 40-60 mg/kg, time 14.0 day
MDA-MB-231 [15] = experiment: Induction of apoptosis in human MDA-MB-231 cells assessed as late apoptotic cells at 0.2 uM incubated for 24 hrs by Annexin V-FITC/PI staining based flow cytometry (reference value: 1.23 %); format: functional
MDA-MB-231 [16] = experiment: Induction of apoptosis in human MDA-MB-231 cells assessed as viable cells at 0.2 uM incubated for 24 hrs by Annexin V-FITC/PI staining based flow cytometry (reference value: 97.54 %); format: functional; conditions: read-out: Activity
HCC1806 [17] = experiment: Induction of apoptosis in human HCC1806 cells assessed as necrotic cells at 0.8 uM incubated for 24 hrs by Annexin V-FITC/PI staining based flow cytometry (reference value: 0.15 %); format: functional
MDA-MB-231 [18] = experiment: Induction of apoptosis in human MDA-MB-231 cells assessed as ROS production rate at 0.1 uM incubated for 24 hrs by DCFH-DA staining based flow cytometry (reference value: 0.28 %); format: functional
HCC1806 [19] = experiment: Induction of apoptosis in human HCC1806 cells assessed as decrease in Bcl-2 level by Western blot analysis; format: functional, cell-based; conditions: dose 0.1-0.4 µM
HCC1806 [20] = experiment: Induction of apoptosis in human HCC1806 cells assessed as early apoptotic cells at 0.2 uM incubated for 24 hrs by Annexin V-FITC/PI staining based flow cytometry (reference value: 0.67 %); format: functional
[21] = Toxicity in Balb/c nude mouse assessed as histopathological change in heart at 60 mg/kg, ip bid for 14 days consecutively; format: organism-based; conditions: in vivo, 336 h, time 14 day
HCC1806 [22] = experiment: Induction of apoptosis in human HCC1806 cells assessed as viable cells at 0.1 uM incubated for 24 hrs by Annexin V-FITC/PI staining based flow cytometry (reference value: 98.95 %); format: functional; conditions: read-out: Activity
HCC1806 [23] = experiment: Downregulation of CUL5 level in human HCC1806 cells at 0.1 to 0.4 uM incubated for 24 hrs by Western blot analysis; format: functional, cell-based; conditions: dose 0.1-0.4 µM
HCC1806 [24] = experiment: Anti-proliferative activity against human HCC1806 cells assessed as reduction in EdU-positive cells at 0.2 uM; format: functional, cell-based
MDA-MB-231 [25] = experiment: Induction of apoptosis in human MDA-MB-231 cells assessed as viable cells at 0.4 uM incubated for 24 hrs by Annexin V-FITC/PI staining based flow cytometry (reference value: 97.54 %); format: functional; conditions: read-out: Activity

COc1cc(Nc2cc(F)ccc2C(=O)NCCc2c[nH]c3c(F)ccc(F)c23)cc(OC)c1OC
viability at 0.2 µM (HCC1806 [1]): 98.1%
Activity (MDA-MB-231 [2]): 2.31%
Activity [3]: Active
Activity [4]: Non-Toxic
Tmax [5]: 2.67 h
Activity (HCC1806 [6]): Active
Activity (MDA-MB-231 [7]): Active
Survival (MDA-MB-231 [8]): >80%
CI (HCC1806 [9]): <1
inhibition (MDA-MB-231 [10]): Active
Activity (HCC1806 [11]): Active
inhibition (MDA-MB-231 [12]): Active
Survival (HCC1806 [13]): >80%
Activity (HCC1806 [14]): Active
Activity (MDA-MB-231 [15]): 1.69%
viability at 0.2 µM (MDA-MB-231 [16]): 96.1%
Activity (HCC1806 [17]): 0.29%
Activity (MDA-MB-231 [18]): 0.61%
Activity (HCC1806 [19]): Active
Activity (HCC1806 [20]): 1.13%
Activity [21]: Non-Toxic
viability at 0.1 µM (HCC1806 [22]): 99%
Activity (HCC1806 [23]): Active
Activity (HCC1806 [24]): Active
viability at 0.4 µM (MDA-MB-231 [25]): 95.7%

Source: ChEMBL document CHEMBL5550161, “Discovery of novel small molecules targeting the USP21/JAK2/STAT3 axis for the treatment of triple-negative breast cancer” (Eur J Med Chem, 2024)
